These results are taken from patent US20250333381A1, “SOLID STATE FORMS” (AMGEN INC., priority 2024, published 2025).

In one data set the test system is HS patients. To be noted: vs. placebo, pre-specified Hurley Stage III (severe HS) patients, 12 weeks; cited from earlier work.
The test system of a further data set is C3G patients. To be noted: compared to placebo, 26 weeks of blinded treatment; cited from earlier work.
Data set [1] can be described thus: Solubility in FaSSIF (shake 2 hr, HPLC). The format is physicochemical. To be noted: for Solubility: 2 h. As for the experimental part: Solubility: Samples were prepared by adding ˜10 mg of the solid to a small centrifuge tube followed by the addition of 1.75 mL freshly prepared FaSSIF solution. The pH of each suspension was measured prior to shaking the samples in an Eppendorf ThermoMixer F1.5 at 37° C. and 1500 rpm for 2 hr. The samples were centrifuged, and the pH of each suspension was measured again at the T=2 hr timepoint. The samples were filtered through Millex 0.20 μm PTFE syringe filters and the filtrates were diluted by a factor of 2 with acetonitrile. Solubility samples were prepared in duplicate. […] The samples were analyzed by HPLC using the method parameters described in the table below. [table] […] The samples were analyzed by HPLC using the method parameters described in the table below. [table]

Data set [2] is described as follows: Dynamic Vapor Sorption (DVS), hygroscopicity. The format is physicochemical. To be noted: 25° C., 0% RH-90% RH-0% RH. As for the experimental part: Dynamic Vapor Sorption (DVS): Water sorption data were collected using a DVS Adventure dynamic vapor sorption analyzer (Surface Measurement Systems). The relative humidity at 25° C. was calibrated against the deliquescence point of LiCl, Mg(NO3)2 and KCl. Approximately 5-15 mg were loaded onto a tared metal pan. Data were collected from 0 to 90 to 0% RH in 5% increments at 25° C. Progression to the next stage occurred when the change in mass with respect to time was less than 0.002 per minute or after 180 minutes, whichever occurred first. The minimum stage time was 10 minutes. [table]

Data set [3] in a line: Solid form screen: thermodynamic stability and form conversion. The format is physicochemical. To be noted: for Thermodynamic stability among crystalline forms: screening process of the HCl and HBr salts; for Form conversion upon heating: heating (under vacuum). As for the experimental part:
A solid form screen of HCl and HBr salts of Compound A was conducted. Crystalline salt forms of Compound A were identified, including a crystalline HCl salt form, a crystalline toluene solvate of a crystalline HCl salt form (also referred to herein an HCl salt toluene solvate form of Compound A), a crystalline HBr salt form, a crystalline toluene solvate of a crystalline HBr salt form (also referred to herein an HBr salt toluene solvate form of Compound A). Amorphous salt forms of Compound A were also identified, including an amorphous HCl salt form and an amorphous HBr salt form.
Further, the DV S data of both crystalline HCl and HBr salts form of Compound A indicate that these two materials are non-hygroscopic.

Data set [4] is described as follows: Dissolution profiles, PION MicroDiss (FIG. 16). The format is physicochemical. To be noted: FaSSIF + 0.2% Tween 80, ~37° C.; for Rate and extent of dissolution: compared to amorphous free base. As to the method:
Dissolution profiles were generated comparing the free base anhydrous crystalline form of Compound A, the amorphous free base form of Compound A, the crystalline HCl salt form of Compound A, and the crystalline HBr salt form of Compound A. The dissolution profiles were obtained by employing a PION MicroDiss profiler equipped with Rainbow […] 8-channel in-situ fiber optic UV-vis spectrometer, heating blocks and magnetic stirrers. Dissolution media was equilibrated at 37° C. using Thermo Neslab RTE 7 recirculating chiller prior to addition of samples. Calibration standards were prepared by serial dilution from a methanol stock solution at 12 levels spanning concentrations 0-38 μg/mL. Samples were analyzed simultaneously in duplicate using the parameters described in the table below. [table]

Data set [5] in a line: Dissolution profiles vs Napsylate, Tosylate, Besylate salt forms (FIGS. 35(a), 35(b)). The format is physicochemical. To be noted: for Cmax of dissolution profile: Besylate salts. The text has this: FIGS. 35(a) and 35(b) show dissolution profiles of crystalline HCl Form 1 of Compound A of this disclosure compared to Napsylate, Tosylate, and Besylate salt forms of Compound A. The concentrations of the salts used are roughly double in FIG. 35(b) than in FIG. 35(a).
FIGS. 35(a) and 35(b) show dissolution profiles of crystalline HCl Form 1 of Compound A of this disclosure compared to Napsylate, Tosylate, and Besylate salt forms of Compound A. Besylate, Tosylate Napsylate salt forms of Compound A were prepared as described in WO 2021/092295. The concentrations of the salts used are roughly double in FIG. 35(b) than in FIG. 35(a).

Converted amounts (≈) assume the structure as drawn. “Also recorded” adds a separate entry of the source. Where a name gives a salt, the structure may show the parent alone.

With `Cc1ccc(NC(=O)[C@H]2CCCN(C(=O)c3c(C)cccc3F)[C@H]2c2ccc(NC3CCCC3)cc2)cc1C(F)(F)F` [Compound A, (2R,3S)-2-(4-(cyclopentylamino)phenyl)-1-(2-fluoro-6-methylbenzoyl)-N-(4-methyl-3-(trifluoromethyl)phenyl)piperidine-3-carboxamide], the “HiSCR (Hidradenitis Suppurativa Clinical Response)” value in the data set on HS patients was “statistically significant dose-dependent improvement in HiSCR”. Besides, the “Renal function as measured by eGFR” value in the data set on C3G patients is “statistically significant improvement in renal function”.
Turning to `Cc1ccc(NC(=O)[C@H]2CCCN(C(=O)c3c(C)cccc3F)[C@H]2c2ccc(NC3CCCC3)cc2)cc1C(F)(F)F` [Crystalline HBr salt form, (2R,3S)-2-(4-(cyclopentylamino)phenyl)-1-(2-fluoro-6-methylbenzoyl)-N-(4-methyl-3-(trifluoromethyl)phenyl)piperidine-3-carboxamide], the “Solubility relative to Besylate, Tosylate and Napsylate forms” value in data set [1] is “significantly more soluble”. In addition, in data set [2], the “Hygroscopicity (DVS)” value was “non-hygroscopic”. The “Thermodynamic stability among crystalline forms” value in data set [3] is listed as “most thermodynamically stable crystalline forms identified in the screening process”. Moreover, in data set [4] (listed as crystalline HBr salt form of Compound A), the “Rate and extent of dissolution” value is “performed similar in terms of rate and extent of dissolution to the amorphous form of avacopan”.
Consider `Cc1ccc(NC(=O)[C@H]2CCCN(C(=O)c3c(C)cccc3F)[C@H]2c2ccc(NC3CCCC3)cc2)cc1C(F)(F)F` [Crystalline HCl salt form, (2R,3S)-2-(4-(cyclopentylamino)phenyl)-1-(2-fluoro-6-methylbenzoyl)-N-(4-methyl-3-(trifluoromethyl)phenyl)piperidine-3-carboxamide], for which, in data set [1], the “Solubility relative to Besylate, Tosylate and Napsylate forms” value is “significantly more soluble”. Further, the “Hygroscopicity (DVS)” value in data set [2] is recorded as “non-hygroscopic”. For the same molecule, the “Thermodynamic stability among crystalline forms” value in data set [3] is reported as “most thermodynamically stable crystalline forms identified in the screening process”. The “Rate and extent of dissolution” value in data set [4] (listed as crystalline HCl salt form of Compound A) is on record as “follows very closely”. Moreover, the “Cmax of dissolution profile” value in data set [4] (compared to crystalline HBr salt and amorphous form) is given as “lesser Cmax”; in data set [5] (FaSSGF+0.2% tween 80 (pH 1.2)), “highest Cmax of all salts”; in data set [5] (FaSSIF+0.2% tween 80 (pH 6.5)), “highest Cmax of all salts”. Further, the “Tmax of dissolution profile” value in data set [5] (Besylate salt forms) is “higher than the Napsylate, Tosylate, and Besylate salt forms of Compound A”.
In the case of `Cc1ccc(NC(=O)[C@H]2CCCN(C(=O)c3c(C)cccc3F)[C@H]2c2ccc(NC3CCCC3)cc2)cc1C(F)(F)F` [Free Base Amorphous Form, (2R,3S)-2-(4-(cyclopentylamino)phenyl)-1-(2-fluoro-6-methylbenzoyl)-N-(4-methyl-3-(trifluoromethyl)phenyl)piperidine-3-carboxamide, reference compound], the Solubility in data set [1] came to 19.44 µg/mL (≈ 33.4 µM).
On the same count and under the same terms, then `Cc1ccc(NC(=O)[C@H]2CCCN(C(=O)c3c(C)cccc3F)[C@H]2c2ccc(NC3CCCC3)cc2)cc1C(F)(F)F` [Free Base Anhydrous Crystalline Form, (2R,3S)-2-(4-(cyclopentylamino)phenyl)-1-(2-fluoro-6-methylbenzoyl)-N-(4-methyl-3-(trifluoromethyl)phenyl)piperidine-3-carboxamide, reference compound], with 1.71 µg/mL (≈ 2.94 µM).
Turning to `Cc1ccc(NC(=O)[C@H]2CCCN(C(=O)c3c(C)cccc3F)[C@H]2c2ccc(NC3CCCC3)cc2)cc1C(F)(F)F` [HBr salt toluene solvate form of Compound A] [(2R,3S)-2-(4-(cyclopentylamino)phenyl)-1-(2-fluoro-6-methylbenzoyl)-N-(4-methyl-3-(trifluoromethyl)phenyl)piperidine-3-carboxamide], the “Form conversion upon heating” value in data set [3] is “convert to the respective HBr and HCl crystalline salt forms of Compound A upon heating; also recorded: converts to the HCl crystalline salt form of Compound A upon heating under vacuum from about 100 °C to about 125 °C from about 4 to about 24 hours”.
Still for that read-out and setting: the entry for `Cc1ccc(NC(=O)[C@H]2CCCN(C(=O)c3c(C)cccc3F)[C@H]2c2ccc(NC3CCCC3)cc2)cc1C(F)(F)F` [HCl salt toluene solvate form of Compound A] [(2R,3S)-2-(4-(cyclopentylamino)phenyl)-1-(2-fluoro-6-methylbenzoyl)-N-(4-methyl-3-(trifluoromethyl)phenyl)piperidine-3-carboxamide] is “convert to the respective HBr and HCl crystalline salt forms of Compound A upon heating; also recorded: converts to the HCl crystalline salt form of Compound A upon heating under vacuum at about 60 °C for about 2 hours”.
